This note sets out measurements from patent US20260274814A1, “THIENYL COMPOUNDS FOR THE TREATMENT OF A CENTRAL NERVOUS SYSTEM DISEASE OR DISORDER” (Coreterra Therapeutics, Inc., priority 2023, published 2026).

Where a name gives a salt, the structure may show the parent alone.

The test system of this assay is mice. Nature of the assay: Neuropharmacological Assay (SmartCube): automated behavioral signature of compound-treated mice compared with a database of reference drug classes. In kind it is in vivo. To be noted: for AD / AG / AN / AP / AX / CE / HL / MS / PS / SH / UK: SmartCube probability class, 3.0 mg/kg dose, i.p. 15 min before the behavioral test; for MED / minimal effective dose: minimal effective dose: dose having 45% or more total activity in SmartCube, i.p., if only one dose was tested, that dose is shown; for minimal effective dose: Mus musculus, ip, read-out: MED. Summed up: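 Compounds in N-methyl-2-pyrrolidone/polyethylene glycol/propylene glycol were given i.p. 15 min before testing, at 3 doses; values shown are for 3.0 mg/kg. Video-captured behaviour was matched by algorithm against reference drug classes, giving a probability per class. MED: lowest dose reaching ≥45% total activity.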

For `CC1(N2CCCC2)CCc2sccc2C1.Cl` (single isomer, unassigned) [Compound 284, 1-(5-methyl-4,5,6,7-tetrahydrobenzo[b]thiophen-5-yl)pyrrolidine hydrochloride], the AD result is given as “ND (^ <4%)”, the AG entry is reported as “ND (^ <4%)”, the AN result is recorded as “ND (^ <4%)” and the AP result was “ND (^ <4%)”. The AX result is on record as “ND (^ <4%)”, the CE result is given as “ND (^ <4%)”, the HL result was “ND (^ <4%)” and the MS result is listed as “ND (^ <4%)”. In addition, the PS result is “ND (^ <4%)”, the SH result is given as “ND (^ <4%)” and the MED is 3 mpk. Moreover, the UK result (hydrochloride, 3 mg/kg) is “++ (≥24%)”.

On to `CNC1COc2scc(C(F)(F)F)c2C1` (single isomer, unassigned) [Compound 289, N-methyl-5-(trifluoromethyl)-3,4-dihydro-2H-thieno[2,3-b]pyran-3-amine hydrochloride], for which the minimal effective dose was above 3 mg/kg, the AD result is on record as “ND (^ <4%)”, the AG entry is given as “ND (^ <4%)” and the AN result is “ND (^ <4%)”. The AP result is reported as “ND (^ <4%)”, the AX entry is given as “ND (^ <4%)”, the CE entry is given as “ND (^ <4%)” and the HL result is recorded as “ND (^ <4%)”. In addition, the MS result is listed as “ND (^ <4%)”, the PS result was “ND (^ <4%)”, the SH result is listed as “ND (^ <4%)” and the UK entry is given as “+ (≥4%)”.

In the case of `CNC1COc2scc(C(F)(F)F)c2C1` (single isomer, unassigned) [Compound 290, N-methyl-5-(trifluoromethyl)-3,4-dihydro-2H-thieno[2,3-b]pyran-3-amine hydrochloride], the AD entry is reported as “ND (^ <4%)”, the UK result is “+ (≥4%)” and the MED is listed as above 3 mpk.

With `CCC1(NC)CCc2sccc2C1` (single isomer, unassigned) [Compound 291, 5-ethyl-N-methyl-6,7-dihydro-4H-benzothiophen-5-amine hydrochloride], the minimal effective dose was above 3 mg/kg, the AD result is reported as “ND (^ <4%)”, the AG entry is “ND (^ <4%)” and the AN result was “ND (^ <4%)”. Further, the AP entry is recorded as “ND (^ <4%)”, the AX result is “ND (^ <4%)”, the CE result is listed as “ND (^ <4%)” and the HL result was “ND (^ <4%)”. Also, the MS entry is “ND (^ <4%)”, the PS entry is reported as “ND (^ <4%)” and the SH result was “ND (^ <4%)”. Moreover, the UK entry (hydrochloride, 3 mg/kg) was “+ (≥4%)”.

Take `CCC1(NC)CCc2sccc2C1` (single isomer, unassigned) [Compound 292, 5-ethyl-N-methyl-6,7-dihydro-4H-benzothiophen-5-amine hydrochloride]: the AD result is “ND (^ <4%)”, the AG entry is “ND (^ <4%)”, the AN result was “ND (^ <4%)” and the AP result is listed as “ND (^ <4%)”. Besides, the AX result was “ND (^ <4%)”, the CE result is given as “ND (^ <4%)”, the HL entry is “ND (^ <4%)” and the MS result was “ND (^ <4%)”. In addition, the PS entry is recorded as “ND (^ <4%)”, the SH entry is on record as “ND (^ <4%)” and the MED is recorded as above 3 mpk. Where the note is “hydrochloride, 3 mg/kg”, the UK result was “++ (≥24%)”.

For the compound `CNC1COc2sccc2C1` (single isomer, unassigned) [Compound 293, N-methyl-3,4-dihydro-2H-thieno[2,3-b]pyran-3-amine formate salt], the minimal effective dose is below 3 mg/kg, the AD result is “ND (^ <4%)”, the AG result is listed as “ND (^ <4%)” and the AN entry is given as “ND (^ <4%)”. Further, the AX entry is “ND (^ <4%)”, the CE result is on record as “ND (^ <4%)”, the HL result was “ND (^ <4%)” and the MS entry is on record as “ND (^ <4%)”. The PS result was “ND (^ <4%)” and the SH result is “ND (^ <4%)”. In addition, under “formate salt, 3 mg/kg”, the AP result was “++++ (≥74%)” and the UK entry is reported as “ND (^ <4%)”.

Take `CNC1COc2sccc2C1` (single isomer, unassigned) [Compound 294, N-methyl-3,4-dihydro-2H-thieno[2,3-b]pyran-3-amine formate salt]: the AD entry is reported as “ND (^ <4%)”, the AG result is “ND (^ <4%)”, the AN result was “ND (^ <4%)” and the AX result was “ND (^ <4%)”. The CE entry is “ND (^ <4%)”, the HL entry is reported as “ND (^ <4%)”, the MS result is reported as “ND (^ <4%)” and the PS entry was “ND (^ <4%)”. Also, the SH entry was “ND (^ <4%)”. Besides, for the setting “formate salt, 3 mg/kg”, the AP entry is listed as “ND (^ <4%)” and the UK entry is reported as “+ (≥4%)”. The MED (formate salt) is above 3 mpk.

On to `Cc1csc2c1OCC(N)C2` (single isomer, unassigned) [Compound 295, 3-methyl-6,7-dihydro-5H-thieno[3,2-b]pyran-6-amine hydrochloride], for which the minimal effective dose worked out at 3 mg/kg, the AD entry is listed as “ND (^ <4%)”, the AG entry is “ND (^ <4%)” and the AN entry is “ND (^ <4%)”. Further, the AX entry is recorded as “ND (^ <4%)”, the CE result is listed as “ND (^ <4%)”, the HL entry is recorded as “ND (^ <4%)” and the MS result is “ND (^ <4%)”. Moreover, the PS entry was “ND (^ <4%)” and the SH result was “ND (^ <4%)”. Besides, where the note is “hydrochloride, 3 mg/kg”, the AP entry is “+++ (≥49%)” and the UK result is “ND (^ <4%)”.

In the case of `Cc1csc2c1OCC(N)C2` (single isomer, unassigned) [Compound 296, 3-methyl-6,7-dihydro-5H-thieno[3,2-b]pyran-6-amine hydrochloride], the AD entry is on record as “ND (^ <4%)”, the AG result is on record as “ND (^ <4%)”, the AN entry is “ND (^ <4%)” and the AX result is recorded as “ND (^ <4%)”. Moreover, the CE result was “ND (^ <4%)”, the HL entry is given as “ND (^ <4%)”, the MS entry is “ND (^ <4%)” and the PS result is given as “ND (^ <4%)”. Further, the SH entry is given as “ND (^ <4%)”. Further, for the setting “hydrochloride, 3 mg/kg”, the AP entry is “ND (^ <4%)” and the UK result was “+ (≥4%)”. The compound also yielded an MED (hydrochloride) above 3 mpk.

Consider `CNC1COc2c(C)csc2C1` (single isomer, unassigned) [Compound 297, N, 3-dimethyl-6,7-dihydro-5H-thieno[3,2-b]pyran-6-amine hydrochloride], for which the minimal effective dose was found to be 3 mg/kg, the AD entry is “ND (^ <4%)”, the AG entry was “ND (^ <4%)” and the AN entry was “ND (^ <4%)”. Besides, the AP entry is reported as “ND (^ <4%)”, the CE entry is “ND (^ <4%)”, the HL entry was “ND (^ <4%)” and the MS entry is listed as “ND (^ <4%)”. Further, the PS result is recorded as “ND (^ <4%)”, the SH result is given as “ND (^ <4%)” and the UK entry is reported as “ND (^ <4%)”. Moreover, the AX result (hydrochloride, 3 mg/kg) is given as “ND (^ <4%)”.

Consider `CNC1COc2c(C)csc2C1` (single isomer, unassigned) [Compound 298, N, 3-dimethyl-6,7-dihydro-5H-thieno[3,2-b]pyran-6-amine hydrochloride], for which the AD result is “ND (^ <4%)”, the AG entry was “ND (^ <4%)”, the AN entry was “ND (^ <4%)” and the AP entry is “ND (^ <4%)”. Further, the CE result is “ND (^ <4%)”, the HL entry is reported as “ND (^ <4%)”, the MS entry was “ND (^ <4%)” and the PS entry was “ND (^ <4%)”. In addition, the SH entry is listed as “ND (^ <4%)”, the UK result was “ND (^ <4%)” and the MED was 3 mpk. The AX result (hydrochloride, 3 mg/kg) is reported as “+++ (≥49%)”.

In the case of `CNC1COc2c(C(F)(F)F)csc2C1` (single isomer, unassigned) [Compound 309, N-methyl-3-(trifluoromethyl)-6,7-dihydro-5H-thieno[3,2-b]pyran-6-amine hydrochloride], the AD entry was “ND (^ <4%)”, the AG entry was “ND (^ <4%)”, the AN entry is given as “ND (^ <4%)” and the AP result is reported as “ND (^ <4%)”. For the same compound, the AX entry is listed as “ND (^ <4%)”, the CE entry was “ND (^ <4%)”, the HL entry is listed as “ND (^ <4%)” and the MS result is recorded as “ND (^ <4%)”. Also, the PS result was “ND (^ <4%)” and the SH result was “ND (^ <4%)”. Moreover, the UK entry (hydrochloride, 3 mg/kg) is “ND (^ <4%)”. This compound displayed an MED (hydrochloride) of 1 mpk.

Regarding `CNC1COc2c(C(F)(F)F)csc2C1` (single isomer, unassigned) [Compound 310, N-methyl-3-(trifluoromethyl)-6,7-dihydro-5H-thieno[3,2-b]pyran-6-amine hydrochloride], the AD entry was “ND (^ <4%)”, the AG entry is “ND (^ <4%)”, the AN result is reported as “ND (^ <4%)” and the AP result is “ND (^ <4%)”. Moreover, the AX result is “ND (^ <4%)”, the CE entry is listed as “ND (^ <4%)”, the HL entry is “ND (^ <4%)” and the MS entry was “ND (^ <4%)”. For the same compound, the PS result is on record as “ND (^ <4%)” and the SH result is recorded as “ND (^ <4%)”. In addition, where the note is “hydrochloride, 3 mg/kg”, the UK result is listed as “++ (≥24%)”. For the setting “hydrochloride”, this compound displayed an MED above 3 mpk.
